Assay results as given in patent publication US11612583B2, “Disease modifying methods for treating neurodegenerative diseases using nootropic agents” (priority 2018, dated 2023).

What was measured:
Type in all cases: cell-based, mouse
[1] = test system: primary cortical neurons treated with rotenone; test: Oxygen consumption rates (XF24e Extracellular Flux Analyzer) in rotenone-treated primary cortical neurons; settings: after rotenone 65 nM 24 hours, 24 hrs
Procedure: Rotenone (1.26 mM stock, Sigma, Cat #R8875) was freshly prepared in water prior to each use. Stocks of rotenone were maintained in the dark at −20° C. for up to 6 months. Rotenone was used at 65 μM for neuroblastoma cells and at 65 nM for primary cortical neurons for 4-6 hours to induce oxidative and autophagic stress.
Forskolin (Coleus forskohlii, >98% HPLC, Sigma Aldrich) was prepared in DMSO as 5 mg/ml stocks (stable for up to 6 months if kept in the dark and stored in −20° C. until ready to use). On the day of the experiment, the forskolin aliquot was thawed and cells were treated once with forskolin at a concentration of 1 to up to 10 μM of forskolin in complete media for treating primary cortical neurons or for intraperitoneal administration of PINK1 knockout mice or PINK1 knockout rats.
Rotenone-treated primary neurons were then exposed to 250 μM dibutyryl cyclic AMP (dbt-cAMP) or with the parental or water-soluble form (NKH477) of Forskolin (6.5 μM-8.5 μM, 24 hrs). The basal oxygen consumption rates (OCRs), a proxy for mitochondrial function, were analyzed by using an XF24^e Extracellular Flux Analyzer (Agilent Technologies). The maximal oxygen consumption rates (OCRs), a proxy for maximal buffering capacity of mitochondrial function, were also analyzed by using an XF24^e Extracellular Flux Analyzer in primary cortical neurons treated with 1 μM FCCP, an ionophore that acts as a mitochondrial uncoupler.

[2] = test system: primary cortical neurons treated with rotenone; test: Extracellular acidification rates (ECARs), proxy for glycolysis, in rotenone-treated primary cortical neurons; settings: after rotenone 65 nM 24 hours, 6.5 μM-8.5 μM, FIG. 3
Procedure: Rotenone (1.26 mM stock, Sigma, Cat #R8875) was freshly prepared in water prior to each use. Stocks of rotenone were maintained in the dark at −20° C. for up to 6 months. […]
The extracellular acidification rates (ECARs), a proxy for glycolysis, were also assessed by using an XF24^e Extracellular Flux Analyzer in primary neurons.

[3] = test system: primary cortical neurons treated with rotenone; test: Image-based analysis of mitochondrial content in dendrites (MAP2B/TOM20 immunostaining); settings: after rotenone 65 nM; Forskolin/NKH477 6.5 μM-8.5 μM or 250 μM dbt-cAMP; FIG. 4
Description: The rotenone-treated neurons were also studied by image-based analyses of mitochondrial content in dendrites from primary cortical neurons immunostained for dendrites (MAP2B) and for mitochondria (TOM20).

[4] = test system: primary cortical neurons treated with rotenone; test: Dendrite length analysis (MAP2B immunostaining); settings: after rotenone 65 nM; Forskolin/NKH477 6.5 μM-8.5 μM or 250 μM dbt-cAMP; FIG. 5
[5] = test system: primary cortical neurons; test: Rotenone toxicity in primary cortical neurons; settings: 24 hours

C=C[C@@]1(C)CC(=O)[C@]2(O)[C@@]3(C)[C@@H](O)CCC(C)(C)[C@@H]3[C@H](OC(=O)CCN(C)C)[C@H](OC(C)=O)[C@@]2(C)O1.Cl [NKH477]
spare respiratory capacity (Maximal OCRs-Baseline OCRs) ([1]; 6.5 μM-8.5 μM, 1 μM FCCP, FIG. 2): completely restored
baseline mitochondrial respiration (basal OCRs) ([1]; Forskolin or NKH477 6.5 μM-8.5 μM, FIG. 1): partially or completely restored
glycolysis (baseline ECARs) [2]: completely restored normal glycolytic function
mitochondrial content in dendrites (% of dendrites occupied by mitochondria) [3]: completely blocked
dendrite arbors (total dendrite length per neuron) [4]: completely blocked

CCCC(=O)Nc1ncnc2c1ncn2[C@@H]1O[C@@H]2COP(=O)(O)O[C@H]2[C@H]1OC(=O)CCC [dbt-cAMP, dibutyryl cyclic AMP]
mitochondrial content in dendrites (% of dendrites occupied by mitochondria) [3]: reversed the loss of mitochondria within dendrites
dendrite arbors (total dendrite length per neuron) [4]: reversed the loss of dendrites

C=C(C)[C@H]1Cc2c(ccc3c2O[C@@H]2COc4cc(OC)c(OC)cc4[C@@H]2C3=O)O1 [rotenone, Rotenone]
LD50 concentration [5]: 65 nM
